Measurements reported in PubChem BioAssay (NCI).
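A five-concentration, 48-hour dose response in 96-well plates underlies each endpoint, interpolated linearly between surrounding concentrations. The concentration for full growth arrest is given as TGI.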

Key:
Experiment in all cases: NCI tumour cell line growth inhibition, 48 h
[1] = system: SK-OV-3 ovarian
[2] = system: MDA-N
[3] = system: HS 578T breast
[4] = system: RPMI-8226 leukemia
[5] = system: ACHN renal
[6] = system: SNB-75 CNS
[7] = system: TK-10 renal
[8] = system: PC-3 prostate
[9] = system: HOP-92 NSCLC
[10] = system: KM20L2 colon
[11] = system: MALME-3M melanoma
[12] = system: UO-31 renal
[13] = system: KM12 colon
[14] = system: UACC-62 melanoma
[15] = system: SN12C renal
[16] = system: A549 NSCLC
[17] = system: MDA-MB-435
[18] = system: MDA-MB-231 breast
[19] = system: OVCAR-4 ovarian
[20] = system: HOP-62 NSCLC
[21] = system: SK-MEL-5 melanoma
[22] = system: DMS 114 small cell lung
[23] = system: LOX IMVI melanoma
[24] = system: BT-549 breast
[25] = system: CAKI-1 renal
[26] = system: DU-145 prostate
[27] = system: SK-MEL-28 melanoma
[28] = system: RXF-631 renal
[29] = system: A498 renal
[30] = system: SF-268 CNS
[31] = system: MCF7 breast
[32] = system: COLO 205 colon
[33] = system: HOP-18 NSCLC
[34] = system: SW-620 colon
[35] = system: HL-60(TB) leukemia
[36] = system: CCRF-CEM leukemia
[37] = system: NCI-H522 lung
[38] = system: OVCAR-8 ovarian
[39] = system: SF-295 CNS
[40] = system: HCC-2998 colon
[41] = system: EKVX NSCLC
[42] = system: RXF 393 renal
[43] = system: 786-0 renal
[44] = system: OVCAR-3 ovarian
[45] = system: DLD-1 colon
[46] = system: HCT-116 colon
[47] = system: SNB-19 CNS
[48] = system: K-562 leukemia
[49] = system: T-47D breast
[50] = system: UACC-257 melanoma
[51] = system: DMS 273 small cell lung
[52] = system: HCT-15 colon
[53] = system: IGROV1 ovarian
[54] = system: SK-MEL-2 melanoma
[55] = system: NCI-H23 lung
[56] = system: M14 melanoma
[57] = system: XF 498 CNS
[58] = system: U251 CNS
[59] = system: LXFL 529 NSCLC
[60] = system: MOLT-4 leukemia
[61] = system: NCI-H226 lung
[62] = system: SF-539 CNS
[63] = system: NCI-H460 lung
[64] = system: OVCAR-5 ovarian
[65] = system: SNB-78 CNS
[66] = system: M19-MEL melanoma
[67] = system: HT29 colon

For `C/C(=N\N=C(/[Se])N1CC2CCC(CC2)C1)c1ccccn1`, the TGI [1] was 2.09 µM, the TGI [2] was 2.6 µM and the TGI [3] was 7.77 µM. For the same molecule, the TGI [4] was 0.22 µM, the TGI [5] was 1.78 µM and the TGI [6] was 1.11 µM. It also gave a TGI [7] of 3.7 µM, a TGI [8] of 1.26 µM and a TGI [9] of 1.18 µM. For the same molecule, the TGI [10] was 0.682 µM, the TGI [11] was 0.567 µM and the TGI [12] was 1.9 µM. For the same molecule, the TGI [13] was 1.54 µM, the TGI [14] was 0.711 µM and the TGI [15] was 2.57 µM. It also gave a TGI [16] of 3.03 µM, a TGI [17] of 0.619 µM and a TGI [18] of 2.65 µM. It also gave a TGI [19] of 2.56 µM, a TGI [20] of 1.92 µM and a TGI [21] of 0.433 µM. The TGI [22] was less than 0.0229 µM, the TGI [23] was 0.64 µM and the TGI [24] was 1.63 µM. The TGI [25] was 1.95 µM, the TGI [26] was 1.68 µM and the TGI [27] was 1.03 µM. The TGI [28] was 3.88 µM, the TGI [29] was 1.31 µM and the TGI [30] was 5.43 µM. For the same molecule, the TGI [31] was 2.8 µM, the TGI [32] was 0.063 µM and the TGI [33] was 1.98 µM. The TGI [34] was 0.608 µM, the TGI [35] was 0.489 µM and the TGI [36] was 0.808 µM. It also gave a TGI [37] of 0.615 µM, a TGI [38] of 2.34 µM and a TGI [39] of 2.24 µM. It also gave a TGI [40] of 1.5 µM, a TGI [41] of 2.06 µM and a TGI [42] of 0.359 µM. It also gave a TGI [43] of 2.52 µM, a TGI [44] of 1.61 µM and a TGI [45] of 1.96 µM. The TGI [46] was 0.878 µM, the TGI [47] was 4.06 µM and the TGI [48] was 0.575 µM. It also gave a TGI [49] of 3.05 µM, a TGI [50] of 0.569 µM and a TGI [51] of 1.79 µM. It also gave a TGI [52] of 2.06 µM, a TGI [53] of 2.48 µM and a TGI [54] of 0.716 µM. It also gave a TGI [55] of 1.57 µM, a TGI [56] of 0.701 µM and a TGI [57] of 0.0981 µM. The TGI [58] was 1.51 µM, the TGI [59] was 0.0256 µM and the TGI [60] was 1.16 µM. It also gave a TGI [61] of 1.88 µM, a TGI [62] of 1.2 µM and a TGI [63] of 2.61 µM. The TGI [64] was 2.51 µM, the TGI [65] was 2.88 µM and the TGI [66] was 0.559 µM. The TGI [67] was 2.6 µM.

`Cc1cccc(C2=NC(C)(C)C(C)(C)N=C2c2cccc(C)n2)n1` gave a TGI [1] greater than 100 µM, a TGI [4] greater than 100 µM and a TGI [5] greater than 100 µM. The TGI [6] was greater than 100 µM, the TGI [7] was greater than 100 µM and the TGI [9] was greater than 100 µM. It also gave a TGI [10] greater than 100 µM, a TGI [11] greater than 100 µM and a TGI [12] greater than 100 µM. The TGI [13] was greater than 100 µM, the TGI [14] was greater than 100 µM and the TGI [16] was greater than 100 µM. It also gave a TGI [19] greater than 100 µM, a TGI [20] greater than 100 µM and a TGI [21] greater than 100 µM. For the same molecule, the TGI [22] was greater than 100 µM, the TGI [23] was greater than 100 µM and the TGI [25] was greater than 100 µM. The TGI [27] was greater than 100 µM, the TGI [28] was greater than 100 µM and the TGI [29] was greater than 100 µM. The TGI [30] was greater than 100 µM, the TGI [32] was greater than 100 µM and the TGI [33] was greater than 100 µM. For the same molecule, the TGI [34] was greater than 100 µM, the TGI [35] was greater than 100 µM and the TGI [36] was greater than 100 µM. For the same molecule, the TGI [37] was greater than 100 µM, the TGI [38] was greater than 100 µM and the TGI [39] was greater than 100 µM. The TGI [40] was greater than 100 µM, the TGI [41] was greater than 100 µM and the TGI [42] was greater than 100 µM. The TGI [43] was greater than 100 µM, the TGI [44] was greater than 100 µM and the TGI [45] was greater than 100 µM. The TGI [46] was greater than 100 µM, the TGI [47] was greater than 100 µM and the TGI [48] was greater than 100 µM. For the same molecule, the TGI [50] was greater than 100 µM, the TGI [51] was greater than 100 µM and the TGI [52] was greater than 100 µM. It also gave a TGI [53] greater than 100 µM, a TGI [54] greater than 100 µM and a TGI [55] greater than 100 µM. It also gave a TGI [56] greater than 100 µM, a TGI [57] greater than 100 µM and a TGI [58] greater than 100 µM. The TGI [59] was greater than 100 µM, the TGI [61] was greater than 100 µM and the TGI [62] was greater than 100 µM. The TGI [63] was greater than 100 µM, the TGI [64] was greater than 100 µM and the TGI [65] was greater than 100 µM. It also gave a TGI [66] greater than 100 µM and a TGI [67] greater than 100 µM.
